Values joined by “and” are separate entries in the source; they are usually repeats but may differ in a detail not shown here. Equal values may be shown once.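 Each compound was tested at five concentrations against cells in 96-well plates for 48 hours. Here, GI50 denotes the concentration required for 50% inhibition of growth. The concentration for full growth arrest is given as TGI.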
Tests used:
Test in all cases: inhibition of tumour cell growth, NCI panel, 48 h
[1] = test system: RPMI-8226 leukemia
[2] = test system: MCF7 breast
[3] = test system: SW-620 colon
[4] = test system: NCI-H460 lung
[5] = test system: SF-539 CNS
[6] = test system: K-562 leukemia
[7] = test system: M14 melanoma
[8] = test system: UACC-62 melanoma
[9] = test system: EKVX NSCLC
[10] = test system: DU-145 prostate

Compound	GI50 [1]	TGI [1]	GI50 [2]	TGI [2]	GI50 [3]	TGI [3]	GI50 [4]	TGI [4]	GI50 [5]	TGI [5]	GI50 [6]	TGI [6]	GI50 [7]	TGI [7]	GI50 [8]	TGI [8]	GI50 [9]	TGI [9]	GI50 [10]	TGI [10]
O=P(O)(O)OC1C(OP(=O)(O)O)C(OP(=O)(O)O)C(OP(=O)(O)O)C(OP(=O)(O)O)C1OP(=O)(O)O (stereo not drawn)	> 2000 µM	> 2000 µM	> 2000 µM	> 2000 µM	> 2000 µM	> 2000 µM	> 2000 µM	> 2000 µM	> 2000 µM	> 2000 µM	> 2000 µM	> 2000 µM	> 2000 µM	> 2000 µM	> 2000 µM	> 2000 µM	> 100 µM	> 2000 µM	> 2000 µM	> 2000 µM
C=C1C(=O)OC(CCCCCCCC)C1C(=O)O (stereo not drawn)	15 µM	59.7 µM	12.6 µM	26.5 µM	15.2 µM	30.7 µM	18.6 µM	37.5 µM	17 µM	31.6 µM	27.9 µM	> 75.8 µM	14.6 µM	29.7 µM	12.1 µM	24.7 µM	16.1 µM	31.2 µM	15.2 µM	30.1 µM
O=C(Nc1ccc(Cl)cc1)NS(=O)(=O)c1ccc2c(c1)CCC2	34.2 µg/mL	85.7 µM and 150 µg/mL		81.8 µM	10.6 µg/mL	> 100 µM and 33.6 µg/mL	7.71 µg/mL	> 46.4 µM and 36.6 µg/mL	17.6 µg/mL	> 69.2 µM and 37 µg/mL	11.3 µg/mL	> 77.1 µM and 150 µg/mL	20.2 µg/mL	97.5 µM and 45.1 µg/mL	15.9 µg/mL	> 84.7 µM and 36.7 µg/mL	22.4 µg/mL	> 100 µM and 72.1 µg/mL		92 µM
COc1ccccc1/C=C1\COc2ccc(O)c(O)c2C1=O	0.235 µM	0.693 µM	0.36 µM	> 100 µM	1.48 µM	4.2 µM	1.83 µM	4.09 µM	1.52 µM	3.35 µM	0.671 µM	14.1 µM	2.19 µM	8.38 µM	1.59 µM	3.29 µM	3 µM	46.1 µM	2.32 µM	> 100 µM
O=C1CCC/C=C\C[C@H]2C=C(Cl)C(=O)/C2=C/C[C@H](CCCCC(F)(F)F)OC(=O)CCC/C=C\C[C@H]2C=C(Cl)C(=O)/C2=C/C[C@H](CCCCC(F)(F)F)O1	0.177 µM	0.528 µM	0.176 µM	0.973 µM	0.237 µM	0.659 µM	0.257 µM	1.03 µM	0.257 µM	1.52 µM	0.184 µM	7.5 µM	0.192 µM	0.614 µM	0.149 µM	0.352 µM	0.283 µM	1.18 µM	0.264 µM	1.42 µM
COc1ccc(CN2CCc3c(Cl)nc(N)nc3C2=O)c(OC)c1	16 µM	52.7 µM	15.7 µM	61.3 µM	13.6 µM	28.1 µM	18.6 µM	42.6 µM	15.8 µM	31.7 µM	2.46 µM	37.7 µM	13.8 µM	28.1 µM	13.5 µM	27.6 µM	16.8 µM	61.7 µM	18.2 µM	40.3 µM
N#Cc1c(N)nn(C(=O)c2ccc(NC(=O)c3ccccn3)cc2)c1-c1ccc(Cl)cc1	> 100 µM	> 100 µM	2.71 µM	> 100 µM	3.7 µM	> 100 µM	4.02 µM	61.7 µM	3.21 µM	12.5 µM	6.62 µM	> 100 µM	5.52 µM	> 100 µM	9.45 µM	> 100 µM	6.96 µM	> 100 µM	2.7 µM	7.29 µM
CC1CN(CCO)CC(C)O1 (stereo not drawn)		> 100 µM		> 100 µM		> 100 µM		> 100 µM		> 100 µM		> 100 µM		> 100 µM		> 100 µM		> 100 µM		> 100 µM
COc1ccc(/C=C2/SC(=Nc3c(C)nn(-c4ccccc4)c3N)NC2=O)cc1	3.9 µM	22.9 µM	3.08 µM	31.5 µM	3.31 µM	13.9 µM	3.04 µM	10.7 µM	2.38 µM	10.8 µM	3.02 µM	> 100 µM	3.72 µM	22.6 µM	3.78 µM	18.3 µM	4.18 µM	40 µM	3.73 µM	23.1 µM
O=c1c(Cl)nsnc1Cl		5.22 µM		31.5 µM		31.5 µM		> 73.1 µM		28.1 µM		3.58 µM		12.8 µM		33.4 µM		58.2 µM		31.5 µM
O=C(CCCCCCc1nc2ccc(Br)cc2[nH]1)NO	0.411 µM	> 100 µM	0.425 µM	> 100 µM	0.266 µM	1.04 µM	0.386 µM	10.6 µM	0.97 µM	31.3 µM	0.357 µM	> 100 µM	0.34 µM	7.51 µM	0.189 µM	1.17 µM	1.55 µM	97.1 µM	0.621 µM	5.84 µM
Nc1nc2nc3c(nc2c(=O)[nH]1)CN(c1ccc(C(=O)O)cc1)C3=O		> 100 µM		> 100 µM		> 100 µM		> 100 µM		> 100 µM		> 100 µM		> 100 µM		> 100 µM		> 100 µM		> 100 µM

Reference: PubChem BioAssay (NCI)
